Source: patent US9896423B2, “Deuterium substituted 1-[2-(2,4-dimethyl-phenylsulfanyl)-phenyl]piperazine compound or derivatives thereof, and pharmaceutical composition and use thereof” (Jiangsu Jibeier Pharmaceutical Co. Ltd., priority 2014, dated 2018)
“And” between values parts separate entries of the source, which are not always exact repeats. Equal values may be shown once. Read-outs that look alike come from different tables or passages of the source.

Columns and labels:
[1] = Pharmacokinetic test in rats, gavage administration; assay type: in vivo, SD rats; settings: for bioavailability: read-out: F % (absolute bioavailability), Mean ± SD
Protocol: The preferred compound of the present disclosure was assessed in rats for its pharmacokinetic profile.
SD rats, male and female, weighing 150 to 250 g
Mobile phase: 10 mM ammonium formate aqueous solution:methanol=15:85
The ionization source was electrospray ionization source. The detection mode was positive mode. Multiple reaction monitoring (MRM) was used as the scanning mode. The ion reaction for the quantitative analysis was the following: m/z was 305.2\150.0 for XX, and 256.1\167.1 for diphenhydramine (the internal standard).
XX or YY was orally administered with single dose of 20 mg/kg to six SD rats, one half of which were male and the other half was female. XX or YY was dissolved in 10% hydroxypropyl-β-cyclodextrin. […]
After the blood collection, the tubes were immediately gently turned upside down at least five times to ensure sufficient mixing, and placed on ice. Heparin was added for anticoagulation. The samples were centrifuged at 8000 rpm for 5 min to separate serum from erythrocyte. The serum was transferred with a pipettor to 2 mL polypropylene (PP) tubes, which were marked with the name of the compound and the time points, and stored in a refrigerator at −40° C. before LC-MS analysis. Samples with high concentrations were diluted with rat blank plasma.
2.5 μL of Meth-H2O and 5 μL of the internal standard solution (20 ng/mL, IS) were added to 50 μL of the plasma. Subsequently, 150 μL of methanol was added to the mixture to precipitate protein and the samples were then centrifuged at 13000 rpm for 5 min. The upper organic phase was taken out, filtrated with a 0.22 μM microporous membrane, and 2 μL of the sample was injected for the LC-MS analysis.

[2] = single oral dose of [14C]-labeled vortioxetine; cited from earlier work
[3] = rats, oral 20 mg/kg, individual rats 1-6, 20 mg/kg

MRT inf ([1]; both sexes, SD, rat, plasma, po, 20 mg/kg, rats, oral 20 mg/kg, individual rats 1-6, read-out: MRT0-∞): 4.49 h | half-life ([1]; both sexes, SD, rat, plasma, po, 20 mg/kg, rats, oral 20 mg/kg, individual rats 1-6, read-out: t1/2 (converted)): 3.05 h | AUC(0-t) ([1]; both sexes, SD, rat, plasma, po, 20 mg/kg, rats, oral 20 mg/kg, n = 6, read-out: AUC0-1, Mean ± SD): 489 ± 180 ng·h/mL | AUC(0-inf) ([1]; both sexes, SD, rat, plasma, po, 20 mg/kg, rats, oral 20 mg/kg, n = 6, read-out: AUC0-∞, Mean ± SD): 491 ± 181 ng·h/mL | Cmax ([1]; both sexes, SD, rat, plasma, po, 20 mg/kg, rats, oral 20 mg/kg, n = 6, read-out: Cmax, Mean ± SD): 99.6 ± 42.6 ng/mL | MRT inf ([1]; both sexes, SD, rat, plasma, po, 20 mg/kg, rats, oral 20 mg/kg, n = 6, read-out: MRT0-∞, Mean ± SD): 4.75 ± 0.31 h | half-life ([1]; both sexes, SD, rat, plasma, po, 20 mg/kg, rats, oral 20 mg/kg, n = 6, read-out: t1/2, Mean ± SD (converted)): 2.96 ± 0.43 h | concentration at 10 min ([1]; both sexes, Sprague-Dawley, rat, plasma, oral, 20 mg/kg, 20 mg/kg oral, 10 min (Table 5: 0.167 h), mean of 6 rats, read-out: Concentrations in Plasma of Rats after Oral Administration, Mean ± SD): 19 ± 12.2 ng/mL | concentration at 0.5 h ([1]; both sexes, Sprague-Dawley, rat, plasma, oral, 20 mg/kg, 20 mg/kg oral, 0.5 h, mean of 6 rats, read-out: Concentrations in Plasma of Rats after Oral Administration, Mean ± SD): 54.9 ± 16.8 ng/mL | concentration at 1 h ([1]; both sexes, Sprague-Dawley, rat, plasma, oral, 20 mg/kg, 20 mg/kg oral, 1 h, mean of 6 rats, read-out: Concentrations in Plasma of Rats after Oral Administration, Mean ± SD): 82.6 ± 23.6 ng/mL | concentration at 1.5 h ([1]; both sexes, Sprague-Dawley, rat, plasma, oral, 20 mg/kg, 20 mg/kg oral, 1.5 h, mean of 6 rats, read-out: Concentrations in Plasma of Rats after Oral Administration, Mean ± SD): 89.9 ± 33.7 ng/mL | concentration at 2 h ([1]; both sexes, Sprague-Dawley, rat, plasma, oral, 20 mg/kg, 20 mg/kg oral, 2 h, mean of 6 rats, read-out: Concentrations in Plasma of Rats after Oral Administration, Mean ± SD): 92.1 ± 45.7 ng/mL | concentration at 3 h ([1]; both sexes, Sprague-Dawley, rat, plasma, oral, 20 mg/kg, 20 mg/kg oral, 3 h, mean of 6 rats, read-out: Concentrations in Plasma of Rats after Oral Administration, Mean ± SD): 59.9 ± 30.7 ng/mL | concentration at 4 h ([1]; both sexes, Sprague-Dawley, rat, plasma, oral, 20 mg/kg, 20 mg/kg oral, 4 h, mean of 6 rats, read-out: Concentrations in Plasma of Rats after Oral Administration, Mean ± SD): 53.4 ± 21.6 ng/mL | concentration at 6 h ([1]; both sexes, Sprague-Dawley, rat, plasma, oral, 20 mg/kg, 20 mg/kg oral, 6 h, mean of 6 rats, read-out: Concentrations in Plasma of Rats after Oral Administration, Mean ± SD): 36.4 ± 11.7 ng/mL | concentration at 8 h ([1]; both sexes, Sprague-Dawley, rat, plasma, oral, 20 mg/kg, 20 mg/kg oral, 8 h, mean of 6 rats, read-out: Concentrations in Plasma of Rats after Oral Administration, Mean ± SD): 18.1 ± 5.3 ng/mL | concentration at 10 h ([1]; both sexes, Sprague-Dawley, rat, plasma, oral, 20 mg/kg, 20 mg/kg oral, 10 h, mean of 6 rats, read-out: Concentrations in Plasma of Rats after Oral Administration, Mean ± SD): 9.79 ± 2.62 ng/mL | concentration at 12 h ([1]; both sexes, Sprague-Dawley, rat, plasma, oral, 20 mg/kg, 20 mg/kg oral, 12 h, mean of 6 rats, read-out: Concentrations in Plasma of Rats after Oral Administration, Mean ± SD): 5.12 ± 1.67 ng/mL | concentration at 14 h ([1]; both sexes, Sprague-Dawley, rat, plasma, oral, 20 mg/kg, 20 mg/kg oral, 14 h, mean of 6 rats, read-out: Concentrations in Plasma of Rats after Oral Administration, Mean ± SD): 4.08 ± 1.66 ng/mL | concentration at 24 h ([1]; both sexes, Sprague-Dawley, rat, plasma, oral, 20 mg/kg, 20 mg/kg oral, 24 h, mean of 6 rats, read-out: Concentrations in Plasma of Rats after Oral Administration, Mean ± SD): 0.64 ± 0.32 ng/mL | bioavailability ([1]; both sexes, Sprague-Dawley, rat, plasma, oral, 20 mg/kg, rats, oral 20 mg/kg vs iv 2 mg/kg, n = 6): 7.51 ± 2.77% | AUC(0-t) ([1]; both sexes, Sprague-Dawley, rat, plasma, po, 20 mg/kg, gavage administration of 20 mg/kg, rats, read-out: AUC0-t in the rats' plasma): 489 ± 180 ng·h/mL | bioavailability ([1]; both sexes, Sprague-Dawley, rat, plasma, po, 20 mg/kg, rats, oral 20 mg/kg vs iv 2 mg/kg, n = 6): 7.51 ± 2.77%
Compound: Cc1ccc(Sc2ccccc2N2CCNCC2)c(C)c1 [YY, 1-[2-(2,4-dimethyl-phenylsulfanyl)-phenyl]piperazine]
Concentrations in Plasma of Rats after Oral Administration ([1]; 20 mg/kg oral, 10 min (Table 5: 0.167 h) after administration, individual rats 1-6): 17.9 ng/mL and 9.42 ng/mL and 28.1 ng/mL and 14.3 ng/mL and 38.4 ng/mL and 6.11 ng/mL | Concentrations in Plasma of Rats after Oral Administration ([1]; 20 mg/kg oral, 0.5 h, individual rats 1-6): 86.5 ng/mL and 38.1 ng/mL and 52.3 ng/mL and 49.7 ng/mL | Concentrations in Plasma of Rats after Oral Administration ([1]; 20 mg/kg oral, 1 h, individual rats 1-6): 123 ng/mL and 65.5 ng/mL and 77.4 ng/mL and 81.1 ng/mL and 93.2 ng/mL and 55.6 ng/mL | Concentrations in Plasma of Rats after Oral Administration ([1]; 20 mg/kg oral, 1.5 h, individual rats 1-6): 154 ng/mL and 85.2 ng/mL and 82.9 ng/mL and 89.2 ng/mL and 73.2 ng/mL and 54.9 ng/mL | Concentrations in Plasma of Rats after Oral Administration ([1]; 20 mg/kg oral, 2 h, individual rats 1-6): 182 ng/mL and 68.3 ng/mL and 91.8 ng/mL and 81.9 ng/mL and 72 ng/mL and 56.4 ng/mL | Concentrations in Plasma of Rats after Oral Administration ([1]; 20 mg/kg oral, 3 h, individual rats 1-6): 120 ng/mL and 48.2 ng/mL and 58.3 ng/mL and 55.9 ng/mL and 42.9 ng/mL and 34.2 ng/mL | Concentrations in Plasma of Rats after Oral Administration ([1]; 20 mg/kg oral, 4 h, individual rats 1-6): 93.6 ng/mL and 46.9 ng/mL and 52.9 ng/mL and 55.2 ng/mL and 42.1 ng/mL and 29.9 ng/mL | Concentrations in Plasma of Rats after Oral Administration ([1]; 20 mg/kg oral, 6 h, individual rats 1-6): 57.4 ng/mL and 37.7 ng/mL and 36.7 ng/mL and 33.5 ng/mL and 30.5 ng/mL and 22.4 ng/mL | Concentrations in Plasma of Rats after Oral Administration ([1]; 20 mg/kg oral, 8 h, individual rats 1-6): 27.5 ng/mL and 16.7 ng/mL and 17.7 ng/mL and 16.3 ng/mL and 18.8 ng/mL and 11.3 ng/mL | Concentrations in Plasma of Rats after Oral Administration ([1]; 20 mg/kg oral, 10 h, individual rats 1-6): 14.5 ng/mL and 8.39 ng/mL and 10.9 ng/mL and 8.32 ng/mL and 9.4 ng/mL and 7.24 ng/mL | Concentrations in Plasma of Rats after Oral Administration ([1]; 20 mg/kg oral, 12 h, individual rats 1-6): 7.3 ng/mL and 4.87 ng/mL and 4.29 ng/mL and 7.01 ng/mL and 4.1 ng/mL and 3.17 ng/mL | Concentrations in Plasma of Rats after Oral Administration ([1]; 20 mg/kg oral, 14 h, individual rats 1-6): 7.19 ng/mL and 2.5 ng/mL and 3.69 ng/mL and 4.35 ng/mL and 3.79 ng/mL and 2.95 ng/mL | Concentrations in Plasma of Rats after Oral Administration ([1]; 20 mg/kg oral, 24 h, individual rats 1-6): 0.728 ng/mL and 0.431 ng/mL and 0.716 ng/mL and 0.374 ng/mL and 0.394 ng/mL and 1.21 ng/mL | F % ([1]; rats, oral 20 mg/kg vs iv 2 mg/kg, individual rats 1-6): 12.83% and 6.36% and 7.40% and 7.17% and 6.55% and 4.75% | AUC0-t (area under the plasma concentration-time curve from zero to the last sampling time) [1, 3]: 836.1 ng·h/mL and 415.8 ng·h/mL and 480.4 ng·h/mL and 467.8 ng·h/mL and 427.0 ng·h/mL and 309.2 ng·h/mL | AUC0-∞ [1, 3]: 839.3 ng·h/mL and 416.2 ng·h/mL and 484 ng·h/mL and 469.3 ng·h/mL and 428.7 ng·h/mL and 310.6 ng·h/mL | Cmax [1, 3]: 182.0 ng/mL and 85.2 ng/mL and 91.8 ng/mL and 89.2 ng/mL and 93.2 ng/mL and 56.4 ng/mL | MRT0-∞ [1, 3]: 4.65 h and 4.73 h and 4.67 h and 4.60 h and 5.35 h | t1/2 [1, 3]: 2.20 h and 3.50 h and 2.83 h and 3.06 h and 3.10 h | radioactive metabolites recovered in the feces [2]: ~26% | radioactive metabolites recovered in the urine [2]: approximately 59%
